Holding throughout (type): cell-based
The target of assay [1] is T1, human TLR7 (Homo sapiens, UniProt Q9NYK1).
T1 construct: host or cells: HEK-Blue cells
T1 sequence (Q9NYK1 27-1049): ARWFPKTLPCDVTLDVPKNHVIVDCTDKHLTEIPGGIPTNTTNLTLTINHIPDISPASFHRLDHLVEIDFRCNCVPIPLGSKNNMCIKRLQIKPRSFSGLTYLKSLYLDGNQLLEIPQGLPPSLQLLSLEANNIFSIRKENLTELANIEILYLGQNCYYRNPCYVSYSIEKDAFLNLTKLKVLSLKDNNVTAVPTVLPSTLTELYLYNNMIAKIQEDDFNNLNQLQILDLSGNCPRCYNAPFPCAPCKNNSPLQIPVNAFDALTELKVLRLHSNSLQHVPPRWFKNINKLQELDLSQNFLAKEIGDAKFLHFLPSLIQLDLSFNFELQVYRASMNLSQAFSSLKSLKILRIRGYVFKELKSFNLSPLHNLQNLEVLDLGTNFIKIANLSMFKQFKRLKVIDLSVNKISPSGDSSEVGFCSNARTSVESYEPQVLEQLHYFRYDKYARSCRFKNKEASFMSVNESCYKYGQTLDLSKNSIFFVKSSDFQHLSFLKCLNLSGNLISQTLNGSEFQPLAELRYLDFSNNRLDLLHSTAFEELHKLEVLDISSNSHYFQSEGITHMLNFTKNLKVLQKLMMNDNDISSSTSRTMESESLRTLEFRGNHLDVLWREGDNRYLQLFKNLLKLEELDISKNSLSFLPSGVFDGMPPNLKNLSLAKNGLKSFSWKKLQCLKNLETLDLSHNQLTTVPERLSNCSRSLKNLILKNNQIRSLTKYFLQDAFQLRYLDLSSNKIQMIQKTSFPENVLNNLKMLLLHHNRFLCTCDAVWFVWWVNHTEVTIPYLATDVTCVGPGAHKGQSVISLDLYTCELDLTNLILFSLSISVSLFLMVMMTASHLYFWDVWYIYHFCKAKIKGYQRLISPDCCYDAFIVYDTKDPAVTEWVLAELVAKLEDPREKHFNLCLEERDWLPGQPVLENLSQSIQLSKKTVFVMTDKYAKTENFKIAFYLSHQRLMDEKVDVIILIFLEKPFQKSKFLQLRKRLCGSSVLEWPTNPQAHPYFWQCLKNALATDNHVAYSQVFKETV
As to the kind of experiment: TLR7 inhibition reporter assay (HEK-Blue SEAP reporter, gardiquimod stimulation). The note with it: HEK-Blue cells overexpressing human TLR7, SEAP reporter, gardiquimod 7.5 μM, 22 hour incubation. In outline:
(§1)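 Screening used HEK-Blue cells overexpressing one human TLR (7, 8 or 9) and an IFN-β minimal promoter–NF-κB/AP-1 SEAP construct. Stimulation lasted 22 h at 37 °C with receptor-specific agonist: gardiquimod, R848 or ODN2006 at 7.5 μM, 15.9 μM and 5 nM.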

The target of assay [2] is T2, human TLR9 (Homo sapiens, UniProt Q9NR96).
T2 construct: host or cells: HEK-Blue cells
T2 sequence (Q9NR96 26-1032): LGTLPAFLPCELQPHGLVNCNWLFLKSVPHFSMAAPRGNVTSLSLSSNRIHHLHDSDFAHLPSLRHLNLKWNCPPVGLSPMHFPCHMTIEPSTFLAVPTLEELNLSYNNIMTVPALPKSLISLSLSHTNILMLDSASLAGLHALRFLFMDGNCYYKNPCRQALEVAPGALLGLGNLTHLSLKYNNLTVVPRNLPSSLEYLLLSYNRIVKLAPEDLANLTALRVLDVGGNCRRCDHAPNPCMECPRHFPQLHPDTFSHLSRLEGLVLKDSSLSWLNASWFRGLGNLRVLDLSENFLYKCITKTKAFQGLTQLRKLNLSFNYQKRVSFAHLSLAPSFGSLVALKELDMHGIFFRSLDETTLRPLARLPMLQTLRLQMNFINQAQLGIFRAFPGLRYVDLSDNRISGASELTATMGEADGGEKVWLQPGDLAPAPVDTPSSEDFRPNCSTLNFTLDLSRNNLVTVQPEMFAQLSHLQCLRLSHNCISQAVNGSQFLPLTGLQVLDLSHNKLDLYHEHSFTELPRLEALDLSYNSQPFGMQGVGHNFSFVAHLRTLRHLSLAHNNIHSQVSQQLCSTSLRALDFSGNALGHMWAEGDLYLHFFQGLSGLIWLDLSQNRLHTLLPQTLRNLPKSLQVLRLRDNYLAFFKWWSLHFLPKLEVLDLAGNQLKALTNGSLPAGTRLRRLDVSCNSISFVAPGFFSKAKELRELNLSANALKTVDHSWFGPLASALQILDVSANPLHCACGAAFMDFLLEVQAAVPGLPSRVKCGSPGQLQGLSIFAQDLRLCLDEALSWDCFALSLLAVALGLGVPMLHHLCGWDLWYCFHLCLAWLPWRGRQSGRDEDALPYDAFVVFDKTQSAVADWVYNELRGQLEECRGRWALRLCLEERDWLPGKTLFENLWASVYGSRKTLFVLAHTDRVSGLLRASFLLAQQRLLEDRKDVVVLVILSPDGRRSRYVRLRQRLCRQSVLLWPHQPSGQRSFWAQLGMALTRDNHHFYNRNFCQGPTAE
As to the kind of experiment: TLR9 inhibition reporter assay (HEK-Blue SEAP reporter, ODN2006 stimulation). The note with it: HEK-Blue cells overexpressing human TLR9, SEAP reporter, ODN2006 5 nM, 22 hour incubation. In outline: as §1

Assay [3] deals with T3, human TLR8 (Homo sapiens, UniProt Q9NR97).
T3 construct: host or cells: HEK-Blue cells
T3 sequence (Q9NR97 27-1041): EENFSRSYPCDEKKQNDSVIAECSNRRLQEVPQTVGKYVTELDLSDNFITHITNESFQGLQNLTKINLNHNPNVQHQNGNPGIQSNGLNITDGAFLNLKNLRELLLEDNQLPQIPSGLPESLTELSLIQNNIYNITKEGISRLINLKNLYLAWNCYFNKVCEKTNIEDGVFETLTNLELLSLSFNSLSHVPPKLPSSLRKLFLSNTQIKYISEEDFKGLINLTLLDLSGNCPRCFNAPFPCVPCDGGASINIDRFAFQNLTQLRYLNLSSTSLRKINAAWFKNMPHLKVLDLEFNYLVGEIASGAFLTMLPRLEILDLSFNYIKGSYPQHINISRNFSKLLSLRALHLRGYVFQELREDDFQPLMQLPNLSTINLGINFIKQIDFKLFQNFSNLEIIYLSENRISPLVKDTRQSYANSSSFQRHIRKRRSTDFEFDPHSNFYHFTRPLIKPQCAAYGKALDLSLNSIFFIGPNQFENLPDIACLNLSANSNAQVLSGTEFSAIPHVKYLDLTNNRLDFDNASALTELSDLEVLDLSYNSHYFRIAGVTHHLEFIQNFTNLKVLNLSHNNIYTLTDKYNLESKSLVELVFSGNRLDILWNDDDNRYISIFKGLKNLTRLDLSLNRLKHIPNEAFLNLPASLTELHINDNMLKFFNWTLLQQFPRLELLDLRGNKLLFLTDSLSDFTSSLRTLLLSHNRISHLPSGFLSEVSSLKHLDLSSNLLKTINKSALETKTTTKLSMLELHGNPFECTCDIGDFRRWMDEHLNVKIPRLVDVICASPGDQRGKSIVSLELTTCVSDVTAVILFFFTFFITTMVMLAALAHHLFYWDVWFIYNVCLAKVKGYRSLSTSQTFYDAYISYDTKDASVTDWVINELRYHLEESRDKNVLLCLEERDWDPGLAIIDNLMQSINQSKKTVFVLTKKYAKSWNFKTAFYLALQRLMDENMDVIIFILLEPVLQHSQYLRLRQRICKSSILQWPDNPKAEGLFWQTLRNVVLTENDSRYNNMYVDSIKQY
The assay can be described thus: TLR8 inhibition reporter assay (HEK-Blue SEAP reporter, R848 stimulation). The note with it: HEK-Blue cells overexpressing human TLR8, SEAP reporter, R848 15.9 μM, 22 hour incubation. Summed up:
as §1

As for `Cc1c(-c2[nH]c3ccc(C4CCN(S(=O)(=O)CCN5CCCC5)CC4)cc3c2C(C)C)cn(C)c(=O)c1Cl` [Example 308, 3-chloro-5-(3-isopropyl-5-(1-((2-(pyrrolidin-1-yl)ethyl)sulfonyl)piperidin-4-yl)-1H-indol-2-yl)-1,4-dimethylpyridin-2(1H)-one], the IC50 is 2 nM in assay [1], 5650 nM in assay [2] and 22.1 nM in assay [3].

Turning to `Cc1cc(-c2[nH]c3ccc(C4CCN(C5CCCCC5)CC4)cc3c2C(C)C)cn(C)c1=O` [Example 87, 5-(5-(1-cyclohexylpiperidin-4-yl)-3-isopropyl-1H-indol-2-yl)-1,3-dimethylpyridin-2(1H)-one], the values for the IC50 in assay [1], in assay [2] and in assay [3] were 3.1 nM, 2560 nM and 5.7 nM, respectively.

Consider `CNC(=O)CN1CCC(c2ccc3[nH]c(-c4cc(C#N)c(=O)n(C)c4C)c(C(C)C)c3c2)CC1` [Example 144, 2-(4-(2-(5-cyano-1,2-dimethyl-6-oxo-1,6-dihydropyridin-3-yl)-3-isopropyl-1H-indol-5-yl)piperidin-1-yl)-N-methylacetamide], for which the half-inhibitory concentration (IC50) was determined as 59.9 nM in assay [1], 11400 nM in assay [2] and 4.7 nM in assay [3].

As to `CNC(=O)CN1CCC(c2ccc3[nH]c(-c4cn(C)c(=O)c(C#N)c4C)c(C(C)C)c3c2)CC1` [Example 146, 2-(4-(2-(5-cyano-1,4-dimethyl-6-oxo-1,6-dihydropyridin-3-yl)-3-isopropyl-1H-indol-5-yl)piperidin-1-yl)-N-methylacetamide], the IC50 came out at 38.8 nM in assay [1], 6990 nM in assay [2] and 4.5 nM in assay [3].

As for `Cc1cc(-c2[nH]c3ccc(C4CCN(CC5CC5)CC4)cc3c2C(C)C)cn(C)c1=O` [Example 223, 5-(5-(1-(cyclopropylmethyl)piperidin-4-yl)-3-isopropyl-1H-indol-2-yl)-1,3-dimethylpyridin-2(1H)-one], the IC50 in assay [1] worked out at 10 nM; in assay [2], 5910 nM; in assay [3], 13.6 nM.

Take `CNC(=O)c1cccc(-c2cc(-c3[nH]c4ccc(C5CCNCC5)cc4c3C(C)C)cn(C)c2=O)c1` [Example 59, 3-(5-(3-isopropyl-5-(piperidin-4-yl)-1H-indol-2-yl)-1-methyl-2-oxo-1,2-dihydropyridin-3-yl)-N-methylbenzamide]: the results for the IC50 in assay [1], in assay [2] and in assay [3] were 46.6 nM, 5850 nM and 270 nM, respectively.

On to `CCc1cc(-c2[nH]c3ccc(C4CCNCC4)cc3c2C(C)C)cn(C)c1=O` [Example 67, 3-ethyl-5-(3-isopropyl-5-(piperidin-4-yl)-1H-indol-2-yl)-1-methylpyridin-2(1H)-one], for which the IC50 in assay [1] is 4.3 nM; in assay [2], 919 nM; in assay [3], 5.9 nM.

On to `COc1c(C)c(-c2[nH]c3ccc(C4CCNCC4)cc3c2C(C)C)cn(C)c1=O` [Example 29, 5-(3-isopropyl-5-(piperidin-4-yl)-1H-indol-2-yl)-3-methoxy-1,4-dimethylpyridin-2(1H)-one], for which the values for the IC50 in assay [1], in assay [2] and in assay [3] were 14.1 nM, 783 nM and 50.9 nM, respectively.

Take `Cc1cc(-c2[nH]c3ccc(C4CCN(Cc5cc(Cl)ccc5F)CC4)cc3c2C(C)C)cn(C)c1=O` [Example 80, 5-(5-(1-(5-chloro-2-fluorobenzyl)piperidin-4-yl)-3-isopropyl-1H-indol-2-yl)-1,3-dimethylpyridin-2(1H)-one]: the IC50 in assay [1] was 128 nM; in assay [2], 48800 nM; in assay [3], 141 nM.

Turning to `CC(C)CCN1CCC(c2ccc3[nH]c(-c4cc(-c5ccccc5)c(=O)n(C)c4)c(C(C)C)c3c2)CC1` [Example 90, 5-(5-(1-isopentylpiperidin-4-yl)-3-isopropyl-1H-indol-2-yl)-1-methyl-3-phenylpyridin-2(1H)-one], the figures for the IC50 in assay [1], in assay [2] and in assay [3] were 21.7 nM, 1970 nM and 7 nM, respectively.

Take `CCCn1cc(CN2CCC(c3ccc4[nH]c(-c5cc(C)c(=O)n(C)c5)c(C(C)C)c4c3)CC2)cn1` [Example 228, 5-(3-isopropyl-5-(1-((1-propyl-1H-pyrazol-4-yl)methyl)piperidin-4-yl)-1H-indol-2-yl)-1,3-dimethylpyridin-2(1H)-one]: the IC50 in assay [1] is 3.6 nM; in assay [2], 4270 nM; in assay [3] it was 4.3 nM.

As to `C=Cc1cc(-c2[nH]c3ccc(C4CCN(CC(=O)N(C)C)CC4)cc3c2C(C)C)cn(C)c1=O` [Example 352, 2-(4-(3-isopropyl-2-(1-methyl-6-oxo-5-vinyl-1,6-dihydropyridin-3-yl)-1H-indol-5-yl)piperidin-1-yl)-N,N-dimethylacetamide], the figures for the 50% inhibitory concentration (IC50) in assay [1], in assay [2] and in assay [3] were 21.5 nM, 2420 nM and 31.5 nM, respectively.

The values are drawn from patent US11447466B2, “Substituted indole compounds useful as inhibitors of TLR7/8/9” (BRISTOL-MYERS SQUIBB COMPANY, priority 2017, dated 2022).
